{
  "source": "patent US4731486A",
  "about": "“Hydroformylation using low volatile phosphine ligands” (Union Carbide Corporation, priority 1986, dated 1988)",
  "key": {"[1]": {"experiment": "Batch hydroformylation of dodecene-1 (Examples 13, 14, 18, 19)"}, "[2]": {"experiment": "Solubility of metal salt ligands in nonanal with added solubilizing agent", "assay_type": "physicochemical", "conditions": "25° C.; nonanal with 1:4 CARBOWAX TPEG-900/TERGITOL NP-9"}, "[3]": {"conditions": "25 ppm Rh, 100 °C, Ligand/Rhodium 10, H2 20, CO 40 psia, 5.0 ml olefin"}, "[4]": {"conditions": "200 ppm Rh, 100 °C, Ligand/Rhodium 100, H2 10, CO 40 psia, 5.0 ml olefin"}, "[5]": {"conditions": "200 ppm Rh, 100 °C, Ligand/Rhodium 100, H2 100, CO 40 psia, 5.0 ml olefin"}, "[6]": {"conditions": "200 ppm Rh, 120 °C, Ligand/Rhodium 200, H2 20, CO 40 psia, 5.0 ml olefin"}, "[7]": {"conditions": "500 ppm Rh, 70 °C, Ligand/Rhodium 50, H2 20, CO 40 psia, 5.0 ml olefin"}, "[8]": {"conditions": "Texanol/TPEG-990 3:1, 100° C., 300 ppm Rh, 8.7 wt. % ligand, 75 psia 4:1 H2:CO"}, "[9]": {"conditions": "aqueous (water as solvent), 100° C., 300 ppm Rh, 90 psia 1:1 H2:CO"}, "[10]": {"conditions": "heptanal, CARBOWAX PEG-600, 100° C., 200 ppm Rh, 60 psia 2:1 H2:CO, two liquid organic layers"}, "[11]": {"conditions": "heptanal, TERGITOL 15-S-3/NIAX PPG-1025/Dimethyl Sulfoxide (4:1:1), 100° C., 200 ppm Rh, 60 psia 2:1 H2:CO"}, "[12]": {"conditions": "heptanal, TERGITOL 24-L-75N/CARBOWAX TPEG-990 (4:1), 100° C., 200 ppm Rh, 60 psia 2:1 H2:CO"}, "[13]": {"conditions": "heptanal, TERGITOL NP-9, 100° C., 200 ppm Rh, 60 psia 2:1 H2:CO"}, "[14]": {"conditions": "non-aqueous (Texanol/Carbowax TPEG990 2.6:1), 100° C., 300 ppm Rh, 90 psia 1:1 H2:CO"}},
  "data": [
    {"smiles": "O=S(=O)([O-])c1cccc(P(c2ccccc2)c2ccccc2)c1.[Na+]", "values": [
      {"measurement": "Linear/Branched Aldehyde Mole Ratio", "setting": "[1]; [3]", "value": 3.4},
      {"measurement": "Reaction Rate (C13 aldehydes)", "setting": "[1]; [3]", "value": 1.37, "unit": "Gram/Moles L/Hr"},
      {"measurement": "Linear/Branched Aldehyde Mole Ratio", "setting": "[1]; [4]", "value": 16.9},
      {"measurement": "Reaction Rate (C13 aldehydes)", "setting": "[1]; [4]", "value": 1.13, "unit": "Gram/Moles L/Hr"},
      {"measurement": "Linear/Branched Aldehyde Mole Ratio", "setting": "[1]; [5]", "value": 4.1},
      {"measurement": "Reaction Rate (C13 aldehydes)", "setting": "[1]; [5]", "value": 1.41, "unit": "Gram/Moles L/Hr"},
      {"measurement": "Linear/Branched Aldehyde Mole Ratio", "setting": "[1]; [6]", "value": 9.56},
      {"measurement": "Reaction Rate (C13 aldehydes)", "setting": "[1]; [6]", "value": 1.24, "unit": "Gram/Moles L/Hr"},
      {"measurement": "Linear/Branched Aldehyde Mole Ratio", "setting": "[1]; [7]", "value": 5.5},
      {"measurement": "Reaction Rate (C13 aldehydes)", "setting": "[1]; [7]", "value": 0.51, "unit": "Gram/Moles L/Hr"},
      {"measurement": "Linear/Branched Aldehyde Mole Ratio", "setting": "[1]; [8]", "value": 10.8},
      {"measurement": "Reaction Rate", "setting": "[1]; [8]", "value": 1.04, "unit": "G moles/L/hr"},
      {"measurement": "Linear/Branched Aldehyde Mole Ratio", "setting": "[1]; [9]", "value": 43.4},
      {"measurement": "Reaction Rate", "setting": "[1]; [9]", "value": 0.03, "unit": "G Moles/L/Hr"},
      {"measurement": "Linear/Branched Aldehyde Mole Ratio", "setting": "[1]; [10]", "value": 12.0},
      {"measurement": "Reaction Rate", "setting": "[1]; [10]", "value": 0.72, "unit": "G moles/L/hr"},
      {"measurement": "Linear/Branched Aldehyde Mole Ratio", "setting": "[1]; [11]", "value": 13.2},
      {"measurement": "Reaction Rate", "setting": "[1]; [11]", "value": 0.51, "unit": "G moles/L/hr"},
      {"measurement": "Linear/Branched Aldehyde Mole Ratio", "setting": "[1]; [12]", "value": 13.6},
      {"measurement": "Reaction Rate", "setting": "[1]; [12]", "value": 0.62, "unit": "G moles/L/hr"},
      {"measurement": "Linear/Branched Aldehyde Mole Ratio", "setting": "[1]; [13]", "value": 14.2},
      {"measurement": "Reaction Rate", "setting": "[1]; [13]", "value": 0.77, "unit": "G moles/L/hr"},
      {"measurement": "Linear/Branched Aldehyde Mole Ratio", "setting": "[1]; [14]", "value": 6.6},
      {"measurement": "Reaction Rate", "setting": "[1]; [14]", "value": 4.49, "unit": "G Moles/L/Hr"},
      {"measurement": "Metal Salt Solubility", "setting": "[2]", "value": 25, "unit": "Wt. %"}
    ]}
  ]
}
